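96-well plates; 48 h exposure; 5 concentrations. Endpoints by linear interpolation between flanking doses. Not reached: highest tested concentration assigned. GI50 = concentration required for 50% inhibition of growth.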 Active and inactive are the calls of the source. Rule as the data show it: active = GI50 up to about 1.1 µM and inactive = higher.
Assays:
Assay in all cases: NCI tumour cell line growth inhibition, 48 h
DLD-1 = tested on: DLD-1
DMS-114 = tested on: DMS-114
DMS-273 = tested on: DMS-273
HOP-18 = tested on: HOP-18
LXFL 529 = tested on: LXFL 529
M19-MEL = tested on: M19-MEL
RXF 631 = tested on: RXF 631
SNB-78 = tested on: SNB-78
XF498 = tested on: XF498

Row | Structure (SMILES) | GI50 (DLD-1) | GI50 (DMS-114) | GI50 (DMS-273) | GI50 (HOP-18) | GI50 (LXFL 529) | GI50 (M19-MEL) | GI50 (RXF 631) | GI50 (SNB-78) | GI50 (XF498)
1 | COc1ccc(C(=O)C2=NON3OC23C(=O)c2ccc(OC)cc2)cc1 (stereo unspecified) | 7.28 µM (inactive) | 5.96 µM (inactive) | 19.1 µM (inactive) | 18.9 µM (inactive) | 2.63 µM (inactive) | 16.5 µM (inactive) | 15.1 µM (inactive) | 13 µM (inactive) | 10 µM (inactive)
2 | O=C1CC2CCCC23CC2(CCN13)OCCO2 (stereo unspecified) | > 100 µM (inactive) | > 100 µM (inactive) | > 100 µM (inactive) | > 100 µM (inactive) | > 100 µM (inactive) | > 100 µM (inactive) | > 100 µM (inactive) | > 100 µM (inactive) | > 100 µM (inactive)
3 | O=C(O)CCCSC(=O)Nc1ccc(/N=N/c2ccccc2)cc1 |  | > 100 µM (inactive) | > 100 µM (inactive) |  | > 100 µM (inactive) |  |  | > 100 µM (inactive) | 
4 | COc1ccc(CCc2cc(OC)cc(OC)c2)cc1 | 23.1 µM (inactive) | 3.9 µM (inactive) | 5.15 µM (inactive) | > 32.4 µM (inactive) | 32.9 µM (inactive) | 25.3 µM (inactive) | 13.7 µM (inactive) | 51.4 µM (inactive) | 16.7 µM (inactive)
5 | Oc1ccccc1-c1cnnc(-c2ccccc2O)c1 | 30.6 µM (inactive) | 15 µM (inactive) |  | 22.1 µM (inactive) | 21.5 µM (inactive) | 27.4 µM (inactive) |  | 33.3 µM (inactive) | 16.2 µM (inactive)
6 | CCCCCCCCCCCCCC(=O)OCC1OC(n2cc(F)c(=O)[nH]c2=O)C(N)C(OC(=O)CCCCCCCCCCCCC)C1O (stereo unspecified) |  | > 100 µM (inactive) | > 100 µM (inactive) |  | > 100 µM (inactive) | > 100 µM (inactive) |  | > 100 µM (inactive) | 
7 | CCOC1=C2C(C)(CCC3[C@@]4(C)C=CC(=O)C(C)(C)C4CC(O)[C@@]23C)C(c2ccoc2)C1=O (stereo partly specified) | 11.4 µM (inactive) | 15.6 µM (inactive) | 25.2 µM (inactive) | 33.7 µM (inactive) |  | 18.9 µM (inactive) | 17.9 µM (inactive) | 38.5 µM (inactive) | > 10 µM (inactive)
8 | COc1ccc(C(=O)C#Cc2cnc(O)nc2O)cc1 | 6.32 µM (inactive) | 18.7 µM (inactive) | 14.9 µM (inactive) | 24.5 µM (inactive) | 3.36 µM (inactive) | 8.93 µM (inactive) | 8.89 µM (inactive) | 16.1 µM (inactive) | 
9 | CC[C@@]1(O)C(=O)OCc2c1cc1n(c2=O)Cc2cc3c(OC)cccc3nc2-1 | 0.27 µM (active) | < 0.01 µM (active) | < 0.01 µM (active) | 0.0425 µM (active) | 0.492 µM (active) | 0.056 µM (active) | 0.0628 µM (active) |  | 0.0942 µM (active)
10 | O=C(/C=C/c1ccccc1Cl)c1cccc2ccccc12 | 8.51 µM (inactive) | 4.46 µM (inactive) | 13.4 µM (inactive) | 16.1 µM (inactive) | 3.06 µM (inactive) | 11 µM (inactive) |  | 20.3 µM (inactive) | 
11 | Cc1cc(Cl)cc2c1NC(=O)C2(O)CC(=O)c1ccc(F)cc1 (stereo unspecified) | 96.8 µM (inactive) |  | 77.3 µM (inactive) | 11.3 µM (inactive) |  | 5.41 µM (inactive) |  | 31.4 µM (inactive) | 32.1 µM (inactive)
12 | O=C(/C=C/c1ccccc1O)c1ccccc1O | > 100 µM (inactive) | 16.7 µM (inactive) | > 100 µM (inactive) |  |  | > 100 µM (inactive) |  | > 100 µM (inactive) | 
13 | CC1(C)OC2C(CCP(=O)(O)O)OC(c3nc(C(N)=O)cs3)C2O1 (stereo unspecified) | > 100 µM (inactive) | > 100 µM (inactive) | > 100 µM (inactive) | > 100 µM (inactive) | > 100 µM (inactive) | > 100 µM (inactive) | > 100 µM (inactive) |  | 
14 | CCN(CC)CCCCC1CCN(CC(=O)N2c3ccccc3NC(=O)CC2C)CC1 (stereo unspecified) |  | 69 µM (inactive) | > 100 µM (inactive) | > 100 µM (inactive) | > 100 µM (inactive) | > 100 µM (inactive) | 30.1 µM (inactive) | > 100 µM (inactive) | 
15 | COc1ccc(NC(=O)/C(Cc2nc3ccccc3nc2O)=N\O)c(OC)c1 | > 100 µM (inactive) | > 100 µM (inactive) |  | > 100 µM (inactive) | > 100 µM (inactive) | > 100 µM (inactive) | > 100 µM (inactive) | > 100 µM (inactive) | > 100 µM (inactive)
16 | CN(C)CCC(=O)/C=C\c1ccccc1 | 15.8 µM (inactive) | 18.2 µM (inactive) | 16.3 µM (inactive) | 22.6 µM (inactive) | 13.5 µM (inactive) | 19.7 µM (inactive) | 18.1 µM (inactive) | 15.5 µM (inactive) | 14.9 µM (inactive)
17 | COC(=O)C[C@H]1CCC2(OCCO2)[C@]1(C)C(=O)OC |  | > 100 µM (inactive) | > 100 µM (inactive) |  | > 100 µM (inactive) | > 100 µM (inactive) | > 100 µM (inactive) | > 100 µM (inactive) | > 100 µM (inactive)
18 | C[C@]12CC[C@H](OC(=O)Cc3ccc(N(CCCl)CCCl)cc3)CC1CC[C@@H]1C2CC[C@]2(C)NC(=O)CCC12 (stereo partly specified) | 16.3 µM (inactive) | 6.31 µM (inactive) | 5.64 µM (inactive) | 16.7 µM (inactive) | 8.3 µM (inactive) | 14.3 µM (inactive) | 16 µM (inactive) | 14.1 µM (inactive) | 13.6 µM (inactive)
19 | N#CC(NNC(=O)Cc1ccccc1)c1ccccc1O (stereo unspecified) | 47 µM (inactive) |  | 6.59 µM (inactive) | 13.2 µM (inactive) | 15.2 µM (inactive) | 7.96 µM (inactive) |  | 80.5 µM (inactive) | 
20 | Cc1cc(C)c2[s+]snc2c1 | > 100 µM (inactive) |  | 47.1 µM (inactive) | 44.8 µM (inactive) | 34.4 µM (inactive) | > 100 µM (inactive) | 96.6 µM (inactive) | 84.3 µM (inactive) | 30 µM (inactive)
21 | CC1=NN(C(=O)CC(=O)N(C(=O)c2ccccc2Cl)c2ccc(C)cc2)C(=O)C1/N=N/c1ccc([N+](=O)[O-])cc1 (stereo unspecified) | > 45.9 µM (inactive) | > 42.8 µM (inactive) | 48.9 µM (inactive) | > 62.8 µM (inactive) | 49.4 µM (inactive) |  |  | 57.5 µM (inactive) | > 100 µM (inactive)
22 | CCOP(=O)(OCC)/C(C#N)=C\c1ccsc1 | > 100 µM (inactive) | > 100 µM (inactive) | > 100 µM (inactive) | > 100 µM (inactive) | > 100 µM (inactive) | > 100 µM (inactive) |  | > 100 µM (inactive) | > 100 µM (inactive)
23 | COc1ccc([C@@H]2CC(=O)NCCCCNCCCN2)cc1 | > 100 µM (inactive) | > 100 µM (inactive) | > 100 µM (inactive) | > 100 µM (inactive) | > 100 µM (inactive) | > 100 µM (inactive) |  | > 100 µM (inactive) | > 100 µM (inactive)
24 | CC(C)(CN1CCCCC1)C(=O)/C=C/c1ccc(Br)cc1 | 3.01 µM (inactive) | 1.47 µM (inactive) | 2 µM (inactive) | 2.47 µM (inactive) | 1.81 µM (inactive) | 14.8 µM (inactive) |  | 8.07 µM (inactive) | 2.05 µM (inactive)
25 | CC(=O)O[C@H]1C(=O)[C@@]2(C)C(C(OC(=O)c3ccccc3)C3[C@@H](O)C(OC(=O)[C@@H](O)[C@H](NC(=O)c4ccccc4)c4ccc(C(F)(F)F)cc4)C(C)=C1C3(C)C)[C@]1(OC(C)=O)CO[C@@H]1C[C@@H]2O (stereo partly specified) | > 25 µM (inactive) | 11.3 µM (inactive) | 11.7 µM (inactive) |  | 15.2 µM (inactive) | > 25 µM (inactive) |  | > 25 µM (inactive) | 
26 | O=C(Cc1ccccc1)NN1C(=O)C(Cl)C1c1cc(Br)ccc1O (stereo unspecified) | 3.33 µM (inactive) | 2.23 µM (inactive) | 5.19 µM (inactive) | 5.01 µM (inactive) | 5.68 µM (inactive) | 4.62 µM (inactive) |  | 8 µM (inactive) | 7.76 µM (inactive)

Source: ChEMBL document CHEMBL1201862, “PubChem BioAssay data set” (2004)
